Values joined by “and” are separate entries in the source; they are usually repeats but may differ in a detail not shown here. Equal values may be shown once.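 Compound exposure: 48 hours, 5 concentrations, 96-well plates. The concentration for 50% growth inhibition is given as GI50. TGI: total growth inhibition.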
Assays:
Experiment in all cases: NCI tumour cell line growth inhibition, 48 h
DMS 273 small cell lung = tested on: DMS 273 small cell lung
DLD-1 colon = tested on: DLD-1 colon
M19-MEL melanoma = tested on: M19-MEL melanoma
KM20L2 colon = tested on: KM20L2 colon
HOP-18 NSCLC = tested on: HOP-18 NSCLC
DMS 114 small cell lung = tested on: DMS 114 small cell lung
XF 498 CNS = tested on: XF 498 CNS
MDA-N = tested on: MDA-N
RXF-631 renal = tested on: RXF-631 renal
P388 leukemia = tested on: P388 leukemia
P388/ADR leukemia = tested on: P388/ADR leukemia
SN12K1 renal = tested on: SN12K1 renal

With COC(=O)C1=C(C)N(NC(N)=O)C(C)(O)C12CCOC2=O (stereo not drawn) the TGI (DMS 273 small cell lung) was greater than 100 µM, the TGI (DLD-1 colon) was greater than 100 µM and the TGI (M19-MEL melanoma) was greater than 100 µM. The TGI (KM20L2 colon) was greater than 100 µM, the TGI (HOP-18 NSCLC) was greater than 100 µM and the TGI (DMS 114 small cell lung) was greater than 100 µM. The TGI (XF 498 CNS) was greater than 100 µM.

Cc1ccc(NC(=O)c2cc3ccccc3cc2O)c(C)c1.Cc1ccc(NC(=O)c2cc3ccccc3cc2[O-])c(C)c1.[Ni+2] gave a GI50 (MDA-N) of 3440 nM and a TGI (MDA-N) of 17.3 µM.

In the case of Cc1ccc2c(c1)C=CC(C#N)N2C(=O)Oc1ccccc1 (stereo not drawn), the TGI (MDA-N) is reported as greater than 100 µM.

Compound CC[CH2][Sn]([CH2]CC)([O]C(=O)Cc1ccc(F)cc1)[O][Sn]([CH2]CC)([CH2]CC)[O]C(=O)Cc1ccc(F)cc1 has a GI50 (DMS 273 small cell lung) of 205 nM, a TGI (DMS 273 small cell lung) of 1.13 µM and a GI50 (DLD-1 colon) of 122 nM. For the same compound, the TGI (DLD-1 colon) was 0.432 µM, the GI50 (M19-MEL melanoma) was 59.3 nM and the TGI (M19-MEL melanoma) was 0.276 µM. For the same compound, the GI50 (KM20L2 colon) was 662 nM, the TGI (KM20L2 colon) was 1.98 µM and the GI50 (HOP-18 NSCLC) was 250 nM. For the same compound, the TGI (HOP-18 NSCLC) was 0.828 µM, the GI50 (MDA-N) was 317 nM and the TGI (MDA-N) was 1.43 µM. For the same compound, the GI50 (DMS 114 small cell lung) was 29 nM, the TGI (DMS 114 small cell lung) was 0.119 µM and the GI50 (XF 498 CNS) was 161 nM. The TGI (XF 498 CNS) was 0.302 µM.

Compound Cn1c(=O)c2[nH]c(CCCCc3nc4c([nH]3)c(=O)n(C)c(=S)n4C)nc2n(C)c1=S has a TGI (MDA-N) greater than 100 µM.

CCCN1C(=O)CNC(=O)c2[nH]cnc21 gave a TGI (DLD-1 colon) greater than 100 µM, a TGI (M19-MEL melanoma) greater than 100 µM and a TGI (KM20L2 colon) greater than 100 µM. For the same compound, the TGI (HOP-18 NSCLC) was greater than 100 µM, the TGI (DMS 114 small cell lung) was greater than 100 µM and the TGI (XF 498 CNS) was greater than 100 µM.

With Cc1ccc(N2C(=O)C(Cl)=C(Cl)C2=O)cc1 the TGI (DMS 273 small cell lung) was greater than 100 µM, the TGI (DLD-1 colon) was 40.7 µM and the TGI (M19-MEL melanoma) was 41.9 µM. The TGI (KM20L2 colon) was 53.6 µM, the TGI (HOP-18 NSCLC) was 36.3 µM and the TGI (RXF-631 renal) was 42.2 µM. The TGI (DMS 114 small cell lung) was 36.5 µM.

Compound CC(C)c1cccc(C(C)C)c1NC(=O)CCC(=O)NN has a TGI (DMS 273 small cell lung) greater than 100 µM, a TGI (DLD-1 colon) greater than 100 µM and a TGI (M19-MEL melanoma) greater than 100 µM. It also gave a TGI (KM20L2 colon) greater than 100 µM, a TGI (HOP-18 NSCLC) greater than 100 µM and a TGI (DMS 114 small cell lung) greater than 100 µM.

O=C(Cc1ccccc1)NS(=O)(=O)c1ccccc1 was tested, and the TGI (DMS 273 small cell lung) was greater than 100 µM, the TGI (DLD-1 colon) was greater than 100 µM and the TGI (KM20L2 colon) was greater than 100 µM. For the same compound, the TGI (HOP-18 NSCLC) was greater than 100 µM, the TGI (RXF-631 renal) was greater than 100 µM and the TGI (DMS 114 small cell lung) was greater than 100 µM. It also gave a TGI (XF 498 CNS) greater than 100 µM.

Work on Nc1nc(-c2cccs2)cs1 yielded a TGI (MDA-N) greater than 100 µM.

CCCCCCCCCCCCC(CCCCCCCCCCCC)OP(=O)(O)O was tested, and the TGI (DMS 273 small cell lung) was greater than 100 µM, the TGI (DLD-1 colon) was greater than 100 µM and the TGI (M19-MEL melanoma) was greater than 100 µM. It also gave a TGI (KM20L2 colon) greater than 100 µM, a TGI (HOP-18 NSCLC) greater than 100 µM and a TGI (RXF-631 renal) greater than 100 µM. For the same compound, the TGI (DMS 114 small cell lung) was greater than 100 µM and the TGI (XF 498 CNS) was greater than 100 µM.

Compound O=NN(CCCl)C(=O)N[C@H]1CCCC[C@@H]1Cl has a TGI (DMS 273 small cell lung) greater than 100 µM, a TGI (DLD-1 colon) greater than 100 µM and a TGI (M19-MEL melanoma) greater than 100 µM. For the same compound, the TGI (KM20L2 colon) was greater than 100 µM, the TGI (HOP-18 NSCLC) was greater than 100 µM and the TGI (DMS 114 small cell lung) was greater than 100 µM. It also gave a TGI (XF 498 CNS) greater than 100 µM.

Cn1sc2ccccc2c1=S showed a TGI (DMS 273 small cell lung) of 17.6 µM, a TGI (DLD-1 colon) of 10.1 µM and a TGI (P388 leukemia) of 1670 nM. It also gave a TGI (M19-MEL melanoma) of 16.2 µM, a TGI (KM20L2 colon) of 28.8 µM and a TGI (HOP-18 NSCLC) of 28.4 µM. It also gave a TGI (P388/ADR leukemia) of 2860 nM, a TGI (DMS 114 small cell lung) of 7.46 µM and a TGI (SN12K1 renal) of 7.41 µM. For the same compound, the TGI (XF 498 CNS) was 25.1 µM.

Work on CCCCCC/C=C1\CCC(CN(C)C)C1=O (stereo not drawn) yielded a TGI (DMS 273 small cell lung) of 11.4 µM, a TGI (DLD-1 colon) of 6.18 µM and a TGI (M19-MEL melanoma) of 7.25 µM. The TGI (KM20L2 colon) was 23.3 µM, the TGI (HOP-18 NSCLC) was 28.8 µM and the TGI (MDA-N) was 17.1 µM. For the same compound, the TGI (DMS 114 small cell lung) was 8.99 µM, the TGI (SN12K1 renal) was 4.35 µM and the TGI (XF 498 CNS) was 7.49 µM.

In the case of CCCCCCNCCCNc1c2ccccc2nc2cccc([N+](=O)[O-])c12, the TGI (MDA-N) is reported as 0.0252 µM and 0.103 µM.

O=S(=O)(CCCCl)SCCCCl gave a TGI (MDA-N) greater than 76.2 µM.

Cn1c(=N)n[n+]([O-])c2ccccc21 showed a TGI (MDA-N) of 3.66 µM.

Work on C=C(CN(C)C)C(=O)c1ccc(Oc2ccccc2)cc1 yielded a TGI (DMS 273 small cell lung) of 46.8 µM, a TGI (DLD-1 colon) of 6.96 µM and a TGI (M19-MEL melanoma) of 14.8 µM. The TGI (KM20L2 colon) was 27.5 µM, the TGI (HOP-18 NSCLC) was 13.3 µM and the TGI (MDA-N) was 9.38 µM. For the same compound, the TGI (RXF-631 renal) was 35.9 µM and the TGI (XF 498 CNS) was 27.9 µM.

C#Cc1cc(CN(CC(=O)OC(C)(C)C)CC(=O)OC(C)(C)C)nc(CN(CC(=O)OC(C)(C)C)CC(=O)OC(C)(C)C)c1 gave a TGI (DMS 273 small cell lung) of 28.6 µM, a TGI (M19-MEL melanoma) of 83.2 µM and a TGI (KM20L2 colon) of 69.7 µM. For the same compound, the TGI (RXF-631 renal) was 38.7 µM, the TGI (DMS 114 small cell lung) was 11.5 µM and the TGI (XF 498 CNS) was 36.6 µM.

Compound CCOC(=O)NC1CC2CCC1(OC)C=C2C (stereo not drawn) has a TGI (DMS 273 small cell lung) greater than 100 µM, a TGI (DLD-1 colon) greater than 100 µM and a TGI (M19-MEL melanoma) greater than 100 µM. It also gave a TGI (KM20L2 colon) greater than 100 µM, a TGI (HOP-18 NSCLC) greater than 100 µM and a TGI (DMS 114 small cell lung) greater than 100 µM. It also gave a TGI (XF 498 CNS) greater than 100 µM.

For CC1=CC(=O)c2ccc(C)cc2C1=O, the TGI (MDA-N) was 1.17 µM.

From PubChem BioAssay (NCI)
